According to patent US8735398B2 (Bristol-Myers Squibb Company, priority 2009, dated 2014):
pEC50: −log10 of the molar value. Where two headings read alike, the source gives them in different places.

Test system: HCV 1b genotype
Assay: HCV replicon assay (HCV-neo replicon cells, wild-type)
Type: cell-based, Hepatitis C virus
Conditions: HCV 1b genotype replicon
Procedure, shortened: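 HCV-neo replicon cells (wild-type) and replicon cells carrying NS5A resistance substitutions were treated with compounds; assay per O'Boyle et al. 2005, with luciferase-reporter read-out variants also used.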

[1] = Hepatitis C virus, class symbol, read-out: EC50 Range against HCV 1b
[2] = Hepatitis C virus, class symbols, read-out: EC50 Range against HCV 1b
[3] = Hepatitis C virus, read-out: EC50 1b

| SMILES | pEC50 [1] | also measured |
| --- | --- | --- |
| O=C(Nc1ccc(-c2n[nH]nc2-c2ccc(NC(=O)[C@@H]3CCCN3C(=O)OCc3ccccc3)cc2)cc1)[C@@H]1CCCN1C(=O)OCc1ccccc1 [OL-19, (2S,2′S)-2,2′-[1H-1,2,3-triazole-4,5-diylbis(4,1-phenyleneiminocarbonyl)]bis-1-pyrrolidinecarboxylic acid, bis(phenylmethyl) ester] | 7.00 to 8.34 |  |
| CO[C@H]1C[C@@H](C(=O)Nc2ccc(-c3cnc(-c4ccc(NC(=O)[C@@H]5C[C@H](OC)CN5C(=O)C(NC(C)=O)c5ccccc5)cc4)o3)cc2)N(C(=O)C(NC(C)=O)c2ccccc2)C1 (stereo partly drawn) [OL-60, (2S,4S,2′S,4′S)-N,N′-(1,3-oxazole-2,5-diyldi-4,1-phenylene)bis(1-(acetamido(phenyl)acetyl)-4-methoxy-2-pyrrolidinecarboxamide)] | 7.00 to 8.34 |  |
| O=C(O)CCC(=O)N1CCC[C@H]1C(=O)Nc1ccc(-c2cnc(-c3ccc(NC(=O)[C@@H]4CCCN4C(=O)CCC(=O)O)cc3)o2)cc1 [XY-13, 4,4′-(1,3-oxazole-2,5-diylbis(4,1-phenylenecarbamoyl(2S)-2,1-pyrrolidinediyl))bis(4-oxobutanoic acid)] |  | pEC50 (class symbols, read-out: EC50 Range against HCV 1b): 5.00 to 6.00; pEC50 (read-out: EC50 1b): 5.34 |
| COC(C(=O)N[C@@H](C)C(=O)Nc1ccc(-c2nnc(-c3ccc(NC(=O)[C@H](C)NC(=O)C(OC)c4ccccc4)cc3)o2)cc1)c1ccccc1 (stereo partly drawn) [RK-19, (2S,2′S)-N,N′-(1,3,4-oxadiazole-2,5-diyldi-4,1-phenylene)bis(2-((methoxy(phenyl)acetyl)amino)propanamide)] | 6.00 to 7.00 |  |
| O=C(Nc1ccc(-c2cnc(-c3ccc(NC(=O)[C@@H]4CCCN4C(=O)Cn4c(=O)[nH]c5ccccc54)cc3)o2)cc1)[C@@H]1CCCN1C(=O)Cn1c(=O)[nH]c2ccccc21 [JR-9, (2S,2′S)-N,N′-(2,5-oxazolediyldi-4,1-phenylene)bis[1-[(2,3-dihydro-2-oxo-1H-benzimidazol-1-yl)acetyl]-2-pyrrolidinecarboxamide]] |  | pEC50 [2]: 6.00 to 7.00 |
| O=C(Nc1ccc(-c2n[nH]nc2-c2ccc(NC(=O)[C@@H]3CCCN3C(=O)Cc3ccccc3)cc2)cc1)[C@@H]1CCCN1C(=O)Cc1ccccc1 [OL-20, (2S,2′S)-N,N′-(1H-1,2,3-triazole-4,5-diyldi-4,1-phenylene)bis[1-(phenylacetyl)-2-pyrrolidinecarboxamide]] | 7.00 to 8.34 |  |
| O=C(Nc1ccc(-c2cnc(-c3ccc(NC(=O)[C@@H]4CCCN4C(=O)c4nc5ccccc5s4)cc3)o2)cc1)[C@@H]1CCCN1C(=O)c1nc2ccccc2s1 [JG-29, (2S,2′S)-N,N′-(1,3-oxazole-2,5-diyldi-4,1-phenylene)bis(1-(1,3-benzothiazol-2-ylcarbonyl)-2-pyrrolidinecarboxamide)] | 6.00 to 7.00 |  |
| CC(=O)N1CCC[C@H]1C(=O)Nc1ccc(-c2cnc(-c3ccc(NC(=O)[C@@H]4CCCN4C(C)=O)cc3)o2)cc1 [JG-11, (2S,2′S)-N,N′-(1,3-oxazole-2,5-diyldi-4,1-phenylene)bis(1-acetyl-2-pyrrolidinecarboxamide)] | 5.00 to 6.00 |  |
| C[C@H](NC(=O)[C@](C)(O)c1ccccc1)C(=O)Nc1ccc(-c2cc(-c3ccc(NC(=O)[C@H](C)NC(=O)[C@](C)(O)c4ccccc4)cc3)[nH]n2)cc1 [OL-46, (2R,2′R)-N,N′-(1H-pyrazole-3,5-diylbis(4,1-phenyleneimino((2S)-1-oxo-1,2-propanediyl)))bis(2-hydroxy-2-phenylpropanamide)] | 7.00 to 8.34 |  |
| C[C@H](NC(=O)[C@@](C)(O)c1ccccc1)C(=O)Nc1ccc(-c2cnc(-c3ccc(NC(=O)[C@H](C)NC(=O)[C@@](C)(O)c4ccccc4)cc3)o2)cc1 [OL-56, ((2S,2′S)-N,N′-(1,3-oxazole-2,5-diylbis(4,1-phenyleneimino((2S)-1-oxo-1,2-propanediyl)))bis(2-hydroxy-2-phenylpropanamide))] | > 8.34 |  |
| CC(Oc1cccc(Cl)c1)C(=O)N1CCC[C@H]1C(=O)Nc1ccc(-c2cnc(-c3ccc(NC(=O)[C@@H]4CCCN4C(=O)C(C)Oc4cccc(Cl)c4)cc3)o2)cc1 (stereo partly drawn) [XY-12, (2S,2′S)-N,N′-(1,3-oxazole-2,5-diyldi-4,1-phenylene)bis(1-(2-(3-chlorophenoxy)propanoyl)-2-pyrrolidinecarboxamide)] |  | pEC50 [2]: 6.00 to 7.00; pEC50 [3]: 6.66 |
| CC(C)(C)O[C@@H]1C[C@@H](C(=O)Nc2ccc(-c3cnc(-c4ccc(NC(=O)[C@@H]5C[C@@H](OC(C)(C)C)CN5C(=O)c5ccccc5)cc4)o3)cc2)N(C(=O)c2ccccc2)C1 [XY-73, (2S,4R,2′S,4′R)-N,N′-(1,3-oxazole-2,5-diyldi-4,1-phenylene)bis(1-benzoyl-4-tert-butoxy-2-pyrrolidinecarboxamide)] |  | pEC50 [2]: 5.00 to 6.00 |
| CC(=O)N1CCC[C@H]1C(=O)Nc1ccc(-c2ncc(-c3ccc(NC(=O)[C@@H]4CCCN4C(=O)Cc4ccccc4)cc3)o2)cc1 [MS-6, (2S)-1-acetyl-N-(4-(5-(4-((((2S)-1-(phenylacetyl)-2-pyrrolidinyl)carbonyl)amino)phenyl)-1,3-oxazol-2-yl)phenyl)-2-pyrrolidinecarboxamide] | 6.00 to 7.00 | pEC50 [3]: 6.73 |
| Cc1nc(-c2ccc(NC(=O)[C@@H]3CCCN3C(=O)Cc3ccccc3)cc2)c(-c2ccc(NC(=O)[C@@H]3CCCN3C(=O)Cc3ccccc3)cc2)s1 [Example D-44, (2S,2′S)-N,N′-((2-methyl-1,3-thiazole-4,5-diyl)di-4,1-phenylene)bis(1-(phenylacetyl)-2-pyrrolidinecarboxamide)] | 7.00 to 8.34 |  |
| O=C(Nc1ccc(-c2cnc(-c3ccc(NC(=O)[C@@H]4CCCN4C(=O)C(O)c4c[nH]c5ncccc45)cc3)o2)cc1)[C@@H]1CCCN1C(=O)C(O)c1c[nH]c2ncccc12 (stereo partly drawn) [Example D-15, (2S,2′S)-N,N′-(4,4′-(oxazole-2,5-diyl)bis(4,1-phenylene))bis(1-(2-hydroxy-2-(1H-pyrrolo[2,3-b]pyridin-3-yl)acetyl)pyrrolidine-2-carboxamide)] |  | pEC50 (class symbol, read-out: EC50 Range against HCV 1b): 5.00 to 6.00; pEC50 (read-out: EC50 1b): 5.17 |
| COCC[C@H](NC(=O)Cc1ccccc1)C(=O)Nc1ccc(-c2cnc(-c3ccc(NC(=O)[C@H](CCOC)NC(=O)Cc4ccccc4)cc3)o2)cc1 [JG-15, (2S,2′S)-N,N′-(1,3-oxazole-2,5-diyldi-4,1-phenylene)bis(4-methoxy-2-((phenylacetyl)amino)butanamide)] | 6.00 to 7.00 |  |
| Cc1noc(C)c1C(=O)N1C[C@H](OC(C)(C)C)C[C@H]1C(=O)Nc1ccc(-c2cnc(-c3ccc(NC(=O)[C@@H]4C[C@@H](OC(C)(C)C)CN4C(=O)c4c(C)noc4C)cc3)o2)cc1 [XY-72, (2S,4R,2′S,4′R)-N,N′-(1,3-oxazole-2,5-diyldi-4,1-phenylene)bis(4-tert-butoxy-1-((3,5-dimethyl-4-isoxazolyl)carbonyl)-2-pyrrolidinecarboxamide)] |  | pEC50 [2]: 6.00 to 7.00 |
| C[C@H](NC(=O)OCc1ccccc1)C(=O)Nc1ccc(-c2nncn2-c2ccc(NC(=O)[C@H](C)NC(=O)OCc3ccccc3)cc2)cc1 [OL-16, [(1S)-1-methyl-2-oxo-2-[[4-[3-[4-[[(2S)-1-oxo-2-[[(phenylmethoxy)carbonyl]amino]propyl]amino]phenyl]-4H-1,2,4-triazol-4-yl]phenyl]amino]ethyl]-carbamic acid, phenylmethyl ester] | 5.00 to 6.00 |  |
| O=C(Nc1ccc(-c2n[nH]nc2-c2ccc(NC(=O)[C@@H]3C[C@@H](O)CN3C(=O)Cc3ccccc3)cc2)cc1)[C@@H]1C[C@@H](O)CN1C(=O)Cc1ccccc1 [OL-21, (2S,4R,2′S,4′R)-N,N′-(1H-1,2,3-triazole-4,5-diyldi-4,1-phenylene)bis(4-hydroxy-1-(phenylacetyl)-2-pyrrolidinecarboxamide)] | 6.00 to 7.00 |  |
